{"source": "patent US20040120954A1", "about": "“Regulation of mt1-mmp activity” (priority 2000, published 2004)", "key": {"MT1-MMP [1]": {"tested_on": "MT1-MMP", "test": "Activation of proMMP-2 by MT1-MMP on the cell surface of transfected cells (gelatin zymography)", "assay_type": "cell-based, human", "conditions": "transfected COS1 cells, exogenous purified proMMP-2 (FIGS. 2, 20)", "procedure": "Gelatin zymography was conducted using an SDS-polyacrylamide gel (PAGE) containing gelatin (0.8 mg/ml) (Itoh, Y. et al., J. Biol. Chem., 273: 24360-24367, 1998). The samples were mixed with a SDS-PAGE loading buffer without a reducing agent and subjected to electrophoretic analysis at room temperature. Enzyme activity was visualized as a negative staining area with Coomassie Brilliant Blue R-250.\nThe expression construct for FLAG epitope ([…]-tagged MT1-MMP (MT1-F) described in Itoh, Y. et al., J. Biol. Chem., 274: 34260-34266, 1999 was used as a template to generate cDNA for MT1Cat-F (A Ile^318-Gly^535) by the PCR extension method of Ho et al., (Ho, S. N. et al., Gene, 77: 51-59, 1989). The cDNA was subcloned into pSG5 (Stratagene, CA, USA). The PCR-generated fragments were confirmed by DNA sequencing. COS1 cells were transfected with the expression vector for MT1-MMP mutant; MT1-F or MT1Cat-F, or a vector alone (Mock). Expression vectors for each protein were transfected using FuGENE6™ (Roche Molecular Biochemicals) according to the manufacturer's instructions. COS1 cells were seeded in 6-well plates at 1.5×10^5/well at 16 hrs before the transfection was performed. The COS1 cells were maintained in a HAM F-12 medium or DMEM containing 10% fetal bovine serum in a humidified incubator at 37° C. At 48 hrs after the transfection, the cells were collected for use in the experiments. The cells were incubated in the presence of purified proMMP-2 in a serum-free medium (0.25 μg/ml) at 37° C. for 18 hrs. Cell lysates were tested for the expression of the mutants, while culture supernatants were tested for the activation of proMMP-2.\nTo investigate roles of dimer formation upon the activation of proMMP-2, MT1-F was introduced into COS1 cells together with MT1PEX-F. The co-introduced cells were reacted with exogenously added proMMP-2. Thus, COS1 cells were co-transfected with the MT1-F and MT1PEX-F at indicated DNA amount ratios. Next, purified proMMP-2 (0.25 μg/ml) in a serum-free medium was reacted with the resulting cells at 37° C. for 18 hrs. MMP-2 in the culture supernatant was analyzed by gelatin zymography, and the cell lysates were subjected to Western blotting analysis using a monoclonal anti-FLAG M2 antibody.\n(§1) Next, to determine if MT1PEX-F affects the catalytic activity of MT1-MMP on the cell surface or not, tests for gelatin degrading activity and binding capacity to TIMP-2 were conducted using cells transfected in the same incubator. As shown in FIGS. 12 through 14, CHO-K1 cells were transfected with an expression vector for MT1-F, MT1-F/MT1PEX-F or MT1Cat-F, or a vector alone (Mock). The cells were then treated with trypsin, and separately seeded to: DQ™ gelatin-coated cover slips for testing the proteolytic activity (FIG. 13); and 24-well plates for TIMP-2 binding assay (FIG. 12) and for the activation of proMMP-2 (FIG. 14). Transfected cells on the DQ™ gelatin-coated cover slip as shown in FIG. 13 were incubated in a medium at 37° C. for 18 hrs, and the generated fluorescence was analyzed using confocal microscopy. Transfected cells on the 24-well plate as shown in FIG. 12 were incubated with 25 nM ^125I-labeled TIMP-2 in the presence or absence of BB-94 (50 μM) at 0° C. for 1 hr. MT1-MMP specific binding was calculated by subtracting the datum obtained in the presence of BB-94 (50 μM) from each datum derived from the corresponding experiments. […] DQ™ gelatin is a fluorescence-quenched gelatin, which fluoresces upon proteolytic cleavage. […]"}, "MT1-MMP [2]": {"tested_on": "MT1-MMP", "test": "In situ gelatin degrading assay (DQ gelatin or Alexa488-conjugated gelatin)", "assay_type": "cell-based, human", "conditions": "DQ gelatin; CHO-K1 (FIG. 13) or COS1 cells (FIG. 22)", "procedure": "Two different in situ gelatin degrading assays were performed. One used DQ™ gelatin (Molecular Probes, Inc., OR, USA). DQ gelatin is a fluorescence-quenched gelatin substrate, and will fluoresce upon proteolytic cleavage. Glass cover slips were coated with 5% DQ™ gelatin in a 10 mg/ml unlabeled gelatin solution, and dried. Transfected cells were cultured on the cover slip in a humidified chamber for 16 hrs. The cells were then fixed with 3% para-formaldehyde and the degraded areas were visualized as those showing fluorescence.\nThe other assay used Alexa488-conjugated gelatin made with an Alexa488-labeling kit (Molecular Probes). The bottom surfaces of 4-well chamber slides (Nunc) were coated with Alexa488-conjugated gelatin according to the method of Yana, I. and Weiss, S. J., Mol. Biol. Cell, 11, 2387-2401, 2000. Transfected COS1 cells were cultured in the chamber slides for 16 hrs in a humidified culture incubator. The cells were then fixed with 3% para-formaldehyde in PBS, and the degraded area was analyzed under a fluorescence microscope. The degraded area was visualized as a dark, non-fluorescent area. Fluorescence images were analyzed using confocal microscopy (BioRad).\nas §1, with “experiments. Identically transfected cells on the 24-well plate as shown in FIG. 14 were subjected to the reaction with purified proMMP-2 in a serum-free medium at 37° C. for 18 hrs. The cells and culture supernatants were respectively subjected to Western blotting analysis using a monoclonal anti-FLAG M2 antibody, and gelatin zymography analysis.” for “experiments.”"}, "MT1-F": {"molecular_target": "T1, MT1-F (Homo sapiens, UniProt P50281)", "T1 construct": "expressed in transfected cells", "test": "Co-immunoprecipitation with MT1-F using anti-FLAG M2 beads (COS1 cells)", "assay_type": "binding", "conditions": "co-expressed in COS1 cells (FIG. 18)", "procedure": "Transfected COS1 cells were lysed in a RIPA buffer (50 mM Tris-HCl, pH 7.5; 150 mM NaCl; 1% Triton-X100; 1% sodium deoxycolate; 0.1% SDS; 1 mM EDTA; 1 mM PMSF; 10 μM E-64; 0.02% NaN3) at room temperature for 1 hr. Cell lysates were centrifuged at 15,000 rpm in Eppendorf tubes, and the supernatant was reacted with anti-FLAG M2 antibody-conjugated beads (Sigma) at 4° C. for 1 hr. The beads were washed three times with a RIPA buffer and once with Tris-buffered saline (pH 7.5) (TBS). Bound proteins were eluted by the FLAG peptide ([…] 200 μg/ml) (Sigma) in TBS, and subjected to Western blot analysis using a monoclonal mouse anti-FLAG epitope M2 antibody (Sigma), a monoclonal mouse anti-c-Myc antibody (Ab-1) (Oncogene, MA, USA; 1 μg/ml), a rabbit anti-(human MT1Cat) antibody (1:2000), or a monoclonal mouse anti-human MT1PEX antibody (222-1D8) (0.5 μg/ml).\nThe activation of proMMP-2 by MT1-MMP on the cell surface requires the ternary complex formation of proMMP-2, TIMP-2 and MT1-MMP, and also the presence of TIMP-2-free MT1-MMP near the ternary complex. If TIMP-2-free MT1-MMP and the ternary complex are far apart, the activation should not occur. We thus hypothesized that MT1-MMP would form a homophilic complex on the cell surface to arrange the effective activation complex for MMP-2. […]"}}}
{"substance": "MT1Cat: MT1-MMP lacking the PEX domain (untagged)", "values": [{"measurement": "activation of proMMP-2 by cells expressing the mutant", "setting": "MT1-MMP [1]", "result": "cannot activate proMMP-2"}, {"measurement": "gelatin degrading (proteolytic) activity of cells expressing the mutant", "setting": "MT1-MMP [2]", "result": "retains its proteolytic activity"}, {"measurement": "co-immunoprecipitation with MT1-F", "setting": "MT1-F", "result": "not MT1Cat was co-immunoprecipitated with MT1-F"}]}
